The nature of data set [1]: Ratio of drug concentration in Beagle dog brain to plasma at 3 mg/kg, po by LC-MS/MS analysis. In kind it is ADME, organism-based, Canis lupus familiaris. Particulars: read-out: BPR.
The next data set deals with T1, CYP2B6 (Homo sapiens, UniProt P20813).
T1 sequence (P20813 whole entry): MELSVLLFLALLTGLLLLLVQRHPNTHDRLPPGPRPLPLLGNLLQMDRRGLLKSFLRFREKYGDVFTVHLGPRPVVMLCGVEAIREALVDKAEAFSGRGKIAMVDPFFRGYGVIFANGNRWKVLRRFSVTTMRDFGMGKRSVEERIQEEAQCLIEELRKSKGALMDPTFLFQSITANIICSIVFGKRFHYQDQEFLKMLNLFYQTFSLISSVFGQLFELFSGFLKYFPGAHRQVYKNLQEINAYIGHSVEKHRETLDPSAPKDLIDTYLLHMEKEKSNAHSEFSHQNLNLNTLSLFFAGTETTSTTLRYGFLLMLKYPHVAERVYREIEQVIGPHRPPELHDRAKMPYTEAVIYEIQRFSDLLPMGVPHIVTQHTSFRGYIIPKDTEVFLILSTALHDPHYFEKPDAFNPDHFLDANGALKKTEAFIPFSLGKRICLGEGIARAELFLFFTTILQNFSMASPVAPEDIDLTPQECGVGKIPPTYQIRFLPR
Briefly: Activation of CYP2B6 in human hepatocyte using bupropion as substrate preincubated for 5 days followed by substrate addition and measured after 1 hr by LC-MS/MS analysis relative to control. The class given is ADME, cell-based. Particulars: hepatocytes, probe bupropion, time 121 hrs.

Data set [2] has as its target T2, Cytochrome P450 2D6 (Homo sapiens, UniProt P10635). Briefly: Inhibition of CYP2D6 in human liver microsomes using dextromethorphan as substrate incubated for 15 mins in presence of NADPH by LC/MS/MS analysis. The class given is ADME, Microsome. On the technique in general: Liver microsomes are a subcellular fraction often used to study metabolism.
In data set [3] the target is T3, Muscarinic acetylcholine receptor M2 (Rattus norvegicus, UniProt P10980).
T3 sequence (P10980 whole entry): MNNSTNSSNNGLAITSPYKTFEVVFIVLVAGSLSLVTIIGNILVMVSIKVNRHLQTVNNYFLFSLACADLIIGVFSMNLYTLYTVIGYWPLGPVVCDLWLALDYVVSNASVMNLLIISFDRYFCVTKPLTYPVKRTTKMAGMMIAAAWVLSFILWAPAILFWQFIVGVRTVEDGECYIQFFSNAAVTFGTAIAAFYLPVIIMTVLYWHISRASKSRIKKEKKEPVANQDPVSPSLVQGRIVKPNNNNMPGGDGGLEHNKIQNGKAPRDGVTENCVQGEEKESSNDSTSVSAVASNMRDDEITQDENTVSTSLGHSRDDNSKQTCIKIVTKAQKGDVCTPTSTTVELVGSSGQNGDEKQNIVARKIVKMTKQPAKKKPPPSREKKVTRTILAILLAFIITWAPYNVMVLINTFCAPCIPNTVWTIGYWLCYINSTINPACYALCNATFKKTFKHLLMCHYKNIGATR
Kind of data set: Positive allosteric modulator activity at rat M2 receptor expressed in CHO cells co-expressing Gqi5 assessed as maximal response to ACh by calcium mobilization assay. In kind it is cell-based. On the technique in general: Calcium assays in cells follow changes in intracellular calcium, usually with a dye or a luminescent sensor.

A short description of data set [4]: Ratio of unbound drug concentration in Beagle dog brain to plasma at 3 mg/kg, po by LC-MS/MS analysis. The class given is ADME, organism-based, Canis lupus familiaris. The note with it: read-out: K(p,uu,brain).
Data set [5] can be described thus: Ratio of drug concentration in Sprague-Dawley rat brain to plasma at 1 to 10 mg/kg, po by LC-MS/MS analysis. The note with it: dose 1-10 mg/kg, read-out: BPR. The class given is ADME, organism-based.
Data set [6] in a line: Genotoxicity in Salmonella typhimurium TA100 by Ames test. The class given is toxicity. Particulars: salmonella enterica subsp. enterica serovar typhimurium.
The target in a further data set is Cytochrome P450 3A4 (Homo sapiens, UniProt P08684). Briefly: Activation of CYP34A in human hepatocyte using midazolam as substrate preincubated for 5 days followed by substrate addition and measured after 1 hr by LC-MS/MS analysis. The class given is ADME, cell-based.
Cytochrome P450 3A4, sequence (P08684 whole entry): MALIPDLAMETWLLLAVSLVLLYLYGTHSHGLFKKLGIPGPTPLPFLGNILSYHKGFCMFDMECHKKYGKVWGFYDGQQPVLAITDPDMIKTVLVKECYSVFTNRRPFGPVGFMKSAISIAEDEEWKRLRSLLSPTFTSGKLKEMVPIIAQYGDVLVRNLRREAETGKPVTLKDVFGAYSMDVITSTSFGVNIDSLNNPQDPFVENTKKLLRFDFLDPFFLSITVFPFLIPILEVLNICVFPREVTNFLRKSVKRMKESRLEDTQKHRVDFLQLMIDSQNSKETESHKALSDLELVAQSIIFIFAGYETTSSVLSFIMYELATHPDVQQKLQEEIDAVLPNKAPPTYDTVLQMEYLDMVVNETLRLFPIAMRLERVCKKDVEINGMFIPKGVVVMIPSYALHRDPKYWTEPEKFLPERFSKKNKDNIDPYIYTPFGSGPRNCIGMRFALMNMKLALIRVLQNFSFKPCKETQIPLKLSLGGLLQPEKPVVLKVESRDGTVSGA
The nature of data set [7]: Clearance in Cynomolgous monkey plasma at 0.2 mg/kg,iv by LC-MS/MS analysis. The note with it: cynomolgus monkey.
In data set [8] the target is T2, Cytochrome P450 2D6. Kind of data set: […] of human CYP2D6 mediated drug metabolism incubated for 5 mins followed by NADPH addition measured after 1 hr by LC-UV/MS analysis relative to control. The class given is ADME. The note with it: recombinant enzyme, 1.083 h, time 65 min.
For data set [9], the target named is T4, Muscarinic acetylcholine receptor M4 (Homo sapiens) (UniProt P08173).
T4 sequence (whole entry): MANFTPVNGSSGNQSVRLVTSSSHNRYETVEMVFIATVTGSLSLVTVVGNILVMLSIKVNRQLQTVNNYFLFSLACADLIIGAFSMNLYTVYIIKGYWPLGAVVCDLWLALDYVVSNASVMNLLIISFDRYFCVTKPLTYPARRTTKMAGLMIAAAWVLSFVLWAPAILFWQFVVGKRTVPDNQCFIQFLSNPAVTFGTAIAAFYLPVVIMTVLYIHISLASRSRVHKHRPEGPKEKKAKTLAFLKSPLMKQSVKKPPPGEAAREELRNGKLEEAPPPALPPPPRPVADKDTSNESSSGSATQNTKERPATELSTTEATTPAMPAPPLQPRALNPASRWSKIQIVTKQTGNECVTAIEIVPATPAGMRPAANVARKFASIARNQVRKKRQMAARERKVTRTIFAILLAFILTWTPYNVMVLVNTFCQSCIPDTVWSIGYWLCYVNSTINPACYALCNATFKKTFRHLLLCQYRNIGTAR
Briefly: Positive allosteric modulator activity at human M4 receptor expressed in CHO cells co-expressing Gqi5 assessed as maximal response to ACh by calcium mobilization assay relative to contol. In kind it is cell-based. Particulars: filed as positive allosteric modulator.

A short description of data set [10]: Toxicity in rat assessed as effect on somatomotor parameters at 56.6 mg/kg, po measured after 6 hrs by Irwin test. The note with it: in vivo. The class given is organism-based.
In data set [11] the target is T5, Muscarinic acetylcholine receptor M4 (Rattus norvegicus) (UniProt P08485).
T5 sequence (whole entry): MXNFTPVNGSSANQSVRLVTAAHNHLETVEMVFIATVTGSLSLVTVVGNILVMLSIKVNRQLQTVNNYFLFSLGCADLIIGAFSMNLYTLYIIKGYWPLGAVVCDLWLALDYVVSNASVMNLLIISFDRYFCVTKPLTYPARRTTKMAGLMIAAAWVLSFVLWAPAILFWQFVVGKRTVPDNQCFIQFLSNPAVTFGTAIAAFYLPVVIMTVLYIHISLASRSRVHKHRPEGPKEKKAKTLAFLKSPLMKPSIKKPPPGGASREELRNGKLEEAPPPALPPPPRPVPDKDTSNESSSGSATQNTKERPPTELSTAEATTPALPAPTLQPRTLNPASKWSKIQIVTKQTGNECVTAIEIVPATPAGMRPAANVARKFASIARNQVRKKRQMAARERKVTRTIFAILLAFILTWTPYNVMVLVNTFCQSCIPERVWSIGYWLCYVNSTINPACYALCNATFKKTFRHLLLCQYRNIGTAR
Kind of data set: Positive allosteric modulator activity at rat M4 receptor expressed in CHO cells co-expressing Gqi5 assessed as maximal response to ACh by calcium mobilization assay relative to contol. Particulars: filed as positive allosteric modulator. In kind it is cell-based.

Data set [12] is described as follows: Apparent permeability across apical to basolateral side in human Caco-2 cells. In kind it is ADME, cell-based. For orientation: Caco-2 monolayers are a common model of the intestinal barrier.

The structures appear in SMILES notation.

T2 sequence (P10635 whole entry): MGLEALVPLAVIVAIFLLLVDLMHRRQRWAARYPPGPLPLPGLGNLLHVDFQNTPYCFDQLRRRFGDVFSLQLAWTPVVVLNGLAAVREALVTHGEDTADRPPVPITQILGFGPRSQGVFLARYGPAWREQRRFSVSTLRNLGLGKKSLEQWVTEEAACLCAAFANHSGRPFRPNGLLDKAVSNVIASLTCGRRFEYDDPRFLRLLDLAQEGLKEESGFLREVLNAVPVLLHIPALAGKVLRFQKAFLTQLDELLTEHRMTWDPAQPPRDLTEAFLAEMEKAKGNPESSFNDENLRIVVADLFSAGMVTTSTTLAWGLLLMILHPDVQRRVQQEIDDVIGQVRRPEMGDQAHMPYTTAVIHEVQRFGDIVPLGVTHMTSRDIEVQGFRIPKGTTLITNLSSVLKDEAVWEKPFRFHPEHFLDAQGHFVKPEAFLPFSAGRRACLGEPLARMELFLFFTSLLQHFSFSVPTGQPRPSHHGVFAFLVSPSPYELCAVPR

By Emax is commonly meant the maximal effect, on the per cent scale that the assay sets. The IC50 is the concentration that gives 50% inhibition. What is called EC50 is the midpoint of the concentration-response curve. One may read the clearance as a measure of how efficiently the substance is removed, as volume per time. The term Papp A→B denotes how fast a substance crosses the layer from the apical side. As for `COc1ccc(CNC(=O)c2sc3nnc(C)c(C)c3c2N)cc1F`, the Kp amounted to 1 in data set [1] and 0.31 in data set [5]. The same molecule displayed an Emax at 1 h on CYP2B6 of no more than 1%. For the same molecule, on Cytochrome P450 2D6 [2], the IC50 was greater than 30 µM. Also, the EC50 in [3] is greater than 30 µM; on Cytochrome P450 3A4, greater than 50 µM. Moreover, in [4], the Kp uu came to 0.84. Besides, the Activity entry in data set [6] is “Non-Toxic”; on Cytochrome P450 2D6 [8], 0.2%; in [9], 80.6%; in data set [9] (tested as the 2H-labelled form), 87.1%; in data set [10] it was “Non-Toxic”; in data set [11], 68.7%. The same molecule returned a clearance in data set [7] of 25 mL/min/kg. Also, the Papp A→B in [12] was determined as 31 ×10⁻⁶ cm/s.

For the origin of these results see ChEMBL document CHEMBL5252536, “Discovery of VU0467485/AZ13713945: An M4 PAM Evaluated as a Preclinical Candidate for the Treatment of Schizophrenia” (ACS Med Chem Lett, 2017).
